The source of these data is patent US20080015240A1, “Acid Salt of Benzimidazole Derivative and Crystal Thereof” (priority 2004, published 2008).

Structures are written as SMILES. Values after ≈ are worked out from the molar mass of the structure shown. Counter-ions that a name gives are not always drawn.

The nature of data set [1]: solubility according to the General Rules of the Japanese Pharmacopoeia 14th Edition. It counts as physicochemical. Particulars: for solubility in Solution 1: Solution 1 of the Japanese Pharmacopoeia; for solubility in Solution 1 / solubility in Solution 2: 20±5° C. within 30 minutes; for solubility in Solution 2: Solution 2 of the Japanese Pharmacopoeia; for solubility in Water: powder shaken 30 seconds every 5 minutes at 20±5° C. within 30 minutes. On the procedure: […]. In accordance with the General Rules of the Japanese Pharmacopoeia 14th Edition, solubility (μg/mL) herein refers to an amount of a substance dissolved in a solvent after the substance in powder is placed in the solvent and the sample is shaken strongly for 30 seconds every 5 minutes at 20±5° C. within 30 minutes.

Data set [2] can be described thus: order in stability among crystal forms by solvent-mediated transformation of a mixture of crystals. It counts as physicochemical. Particulars: order may change depending on the solvent and temperature. An excerpt: The order in stability among the crystal forms of each acid salt can be examined by solvent-mediated transformation of a mixture of crystals, but the order may change depending on the solvent and temperature. […]. […] […].

Consider `Cc1cccc2scc(Cn3c(SCCCC(=O)O)nc4ccccc43)c12` [Crystal-SB, 4-(1-((4-methylbenzothiophen-3-yl)methyl)benzimidazol-2-ylthio)butanoic acid sulfate], for which, in data set [1] (sulfate), the “solubility in Solution 1” value was determined as 19.8 µg/mL, the “solubility in Solution 2” value is 24.2 µg/mL and the “solubility in Water” value was found to be 0.8 µg/mL.
With `Cc1cccc2scc(Cn3c(SCCCC(=O)O)nc4ccccc43)c12` [Crystal A, 4-(1-((4-methylbenzothiophen-3-yl)methyl)benzimidazol-2-ylthio)butanoic acid, reference compound], in data set [1], the “solubility in Solution 1” value came out at 2.5 µg/mL (≈ 6.3 µM) and the “solubility in Solution 2” value was found to be 1.9 µg/mL (≈ 4.79 µM).
As to `Cc1cccc2scc(Cn3c(SCCCC(=O)O)nc4ccccc43)c12` [Crystal-SG, 4-(1-((4-methylbenzothiophen-3-yl)methyl)benzimidazol-2-ylthio)butanoic acid sulfate], the “relative stability of crystal form” value in data set [2] (sulfate) is reported as “less stable than crystal-SF”.
As for `Cc1cccc2scc(Cn3c(SCCCC(=O)O)nc4ccccc43)c12` [Crystal-SF, 4-(1-((4-methylbenzothiophen-3-yl)methyl)benzimidazol-2-ylthio)butanoic acid sulfate], the “relative stability of crystal form” value in data set [2] (sulfate) is on record as “close to that of crystal-SA”. In data set [1] (sulfate), the “solubility in Solution 1” value is 7.6 µg/mL, the “solubility in Solution 2” value is 74.0 µg/mL and the “solubility in Water” value turned out to be 0.1 µg/mL.
In the case of `Cc1cccc2scc(Cn3c(SCCCC(=O)O)nc4ccccc43)c12.Cl` [Crystal-HB, 4-(1-((4-methylbenzothiophen-3-yl)methyl)benzimidazol-2-ylthio)butanoic acid hydrochloride], in data set [2], the “relative stability of crystal form” value is “more stable than the other crystal forms”.
For the molecule `Cc1cccc2scc(Cn3c(SCCCC(=O)O)nc4ccccc43)c12` [Crystal-SA, 4-(1-((4-methylbenzothiophen-3-yl)methyl)benzimidazol-2-ylthio)butanoic acid sulfate], in data set [1] (sulfate), the “solubility in Solution 1” value was determined as 8.6 µg/mL and the “solubility in Solution 2” value stood at 67.3 µg/mL.
`Cc1cccc2scc(Cn3c(SCCCC(=O)O)nc4ccccc43)c12` [Crystal-SC, 4-(1-((4-methylbenzothiophen-3-yl)methyl)benzimidazol-2-ylthio)butanoic acid sulfate]: the “relative stability of crystal form” value in data set [2] (sulfate) is given as “more stable than the other four crystal forms”. In addition, in data set [1] (sulfate), the “solubility in Solution 1” value worked out at 10.6 µg/mL, the “solubility in Solution 2” value came to 72.4 µg/mL and the “solubility in Water” value was found to be 0.1 µg/mL.
